According to patent US20210070748A1, “INHIBITORS OF BRUTONS TYROSINE KINASE” (Pharmacyclics LLC, priority 2015, published 2021):
Where two headings read alike, the source gives them in different places.

Tests used:
ITK = molecular target: T1, ITK (Homo sapiens, UniProt Q08881); experiment: Inhibition of a panel of kinases, in vitro HotSpot kinase assay: ITK; format: biochemical; settings: 1 μM ATP
T1 sequence (Q08881 1-620): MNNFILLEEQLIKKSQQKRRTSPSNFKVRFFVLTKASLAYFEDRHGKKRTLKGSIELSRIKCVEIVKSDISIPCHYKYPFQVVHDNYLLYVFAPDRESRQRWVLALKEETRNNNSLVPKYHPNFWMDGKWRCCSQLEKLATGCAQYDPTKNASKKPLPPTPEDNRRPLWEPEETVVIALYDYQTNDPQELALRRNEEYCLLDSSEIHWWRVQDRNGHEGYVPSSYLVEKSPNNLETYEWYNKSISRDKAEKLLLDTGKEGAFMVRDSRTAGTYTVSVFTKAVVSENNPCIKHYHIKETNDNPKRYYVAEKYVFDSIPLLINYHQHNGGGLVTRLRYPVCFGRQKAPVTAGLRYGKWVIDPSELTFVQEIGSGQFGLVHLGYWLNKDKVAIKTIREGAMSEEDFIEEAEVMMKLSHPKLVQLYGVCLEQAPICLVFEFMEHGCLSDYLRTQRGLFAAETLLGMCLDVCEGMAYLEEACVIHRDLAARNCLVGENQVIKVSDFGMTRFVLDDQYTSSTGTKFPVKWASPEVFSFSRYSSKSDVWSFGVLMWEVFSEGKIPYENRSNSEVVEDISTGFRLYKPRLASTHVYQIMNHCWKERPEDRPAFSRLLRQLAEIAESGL
Protocol: The degree of inhibition of a panel of kinases is determined using the in vitro HotSpot kinase assay (purified enzymes, ^33P-ATP, an appropriate substrate and 1 μM ATP).

BTK-WT = molecular target: T2, BTK-WT (Homo sapiens, UniProt Q06187); experiment: Btk in vitro inhibitory activity (one of Method A TR-FRET, Method B electrophoretic mobility shift, Method C radiometric filter binding); format: biochemical; settings: read-out: IC50 BTK-WT
T2 construct: purified from insect cells as a full-length construct containing an N-terminal 6X-His tag; His6 (N); made in house; host or cells: insect cells (baculovirus Sf21 in Method B)
Protocol: Btk kinase activity is determined using a time-resolved fluorescence resonance energy transfer (TR-FRET) methodology. Measurements are performed in a reaction volume of 50 μL using 96-well assay plates. […] The reaction is quenched by the addition of 1.2 equivalents of EDTA (relative to divalent cation) in 25 μL of 1× Lance buffer (Perkin-Elmer). […] The TR-FRET signal is measured on a multimode plate reader with an excitation wavelength (λEx) of 330 nm and detection wavelengths (λEm) of 615 and 665 nm. Activity is determined by the ratio of the fluorescence at 665 nm to that at 615 nm. For each compound, enzyme activity is measured at various concentrations of compound. Negative control reactions are performed in the absence of inhibitor in replicates of six, and two no-enzyme controls are used to determine baseline fluorescence levels. Inhibition constants, Ki(app), were obtained using the program BatchKi(Kuzmic et al. (2000), Anal. Biochem. 286:45-50). IC50s are obtained according to the equation:
IC50={Ki(app)/(1+[ATP]/Km^ATP)}+[E]total/2;
Kinase activity is measured in vitro using electrophoretic mobility shift assay. The kinase reactions are assembled in a total volume of 25 μL in 384 well plates. […] The reaction is incubated for one hour and is quenched by the addition of 45 μL of termination buffer (100 mM HEPES, pH7.5, 0.01% Triton X-100, 30 mM EDTA). The terminated reactions are analyzed using 12 channel LabChip® 3000 microfluidic detection instrument (Caliper Life Sciences). […] Change in the relative fluorescence intensity of the substrate and product peaks is the parameter measured, reflecting enzyme activity. In the presence of an inhibitor, the ratio between product and substrate is altered: the signal of the product decreases, while the signal of the substrate increases.
Activity in each sample is determined as the product to sum ratio (PSR): P/(S+P), where P is the peak height of the product peptide and S is the peak height of the substrate peptide. For each compound, enzyme activity is measured at various concentrations (12 concentrations of compound spaced by 3× dilution intervals). Negative control samples (0%-inhibition in the absence of inhibitor) and positive control samples (100%-inhibition, in the presence of 20 mM EDTA) are assembled in replicates of four and are used to calculate %-inhibition values for each inhibitor at each concentration. Percent inhibition (Pinh) is determined using following equation:
Pinh=(PSR0%-PSRinh)/(PSR0%−PSR100%)*100, where PSRinh is the product sum ratio in the presence of inhibitor, PSR0% is the average product sum ration in the absence of inhibitor and PSR100% is the average product sum ratio in 100%-inhibition control samples;
The IC50 values of inhibitors are determined by 4 parameter sigmoidal dose-response model fitting of the inhibition curves (Pinh versus inhibitor concentration) using XLfit 4 software.
Human Btk kinase (Genbank accession # NP_000052) was purified from insect cells as a full-length construct containing an N-terminal 6X-His tag. Btk kinase activity was determined using a radiometric filter binding assay. Measurements are performed in a low μL reaction volume 384-well assay plates. […] IC50 values and curve fits were obtained using Prism (GraphPad Software).

T2 sequence (Q06187 whole entry): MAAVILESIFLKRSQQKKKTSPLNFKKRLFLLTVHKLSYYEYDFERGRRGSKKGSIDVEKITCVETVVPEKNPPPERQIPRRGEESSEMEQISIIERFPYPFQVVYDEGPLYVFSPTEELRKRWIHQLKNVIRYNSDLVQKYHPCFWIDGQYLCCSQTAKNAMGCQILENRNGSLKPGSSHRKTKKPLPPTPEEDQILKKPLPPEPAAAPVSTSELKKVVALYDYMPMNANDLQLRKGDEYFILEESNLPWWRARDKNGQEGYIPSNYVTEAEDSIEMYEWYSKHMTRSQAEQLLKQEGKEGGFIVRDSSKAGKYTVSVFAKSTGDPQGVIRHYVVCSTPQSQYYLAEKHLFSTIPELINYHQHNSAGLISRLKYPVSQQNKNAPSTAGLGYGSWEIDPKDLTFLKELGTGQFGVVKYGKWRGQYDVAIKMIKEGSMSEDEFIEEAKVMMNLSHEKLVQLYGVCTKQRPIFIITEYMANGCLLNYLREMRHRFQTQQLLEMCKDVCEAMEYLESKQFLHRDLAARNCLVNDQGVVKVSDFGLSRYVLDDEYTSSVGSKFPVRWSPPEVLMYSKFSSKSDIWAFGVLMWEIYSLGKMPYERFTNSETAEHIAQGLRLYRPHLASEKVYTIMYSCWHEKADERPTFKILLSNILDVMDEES

SMILES	IC50 (ITK; Table 15, C compounds)	IC50 (BTK-WT; Table 15, C compounds)	IC50 (ITK; Table 13, A compounds)	IC50 (BTK-WT; Table 13, A compounds)
C=CC(=O)N[C@@H]1CCCN(c2nnc(C(N)=O)c(Nc3ccc(C(C)C)cc3)n2)C1 [Example A-94, (R)-3-(3-acrylamido-piperidin-1-yl)-5-(4-isopropylphenylamino)-1,2,4-triazine-6-carboxamide]	–	–	100 to 1000 nM	10 to 100 nM
C=CC(=O)N[C@H]1CCCN(c2nnc(C(N)=O)c(Nc3ccc(C(C)C)cc3)n2)C1 [Example A-95, (S)-3-(3-acrylamido-piperidin-1-yl)-5-(4-isopropylphenylamino)-1,2,4-triazine-6-carboxamide]	–	–	100 to 1000 nM	10 to 100 nM
C=CC(=O)N1CCCC[C@H](Nc2nnc(C(N)=O)c(Nc3ccc(C(C)C)cc3)n2)C1 [Example C-35, (S)-3-(1-acryloylazepan-3-ylamino)-5-(4-isopropylphenylamino)-1,2,4-triazine-6-carboxamide]	100 to 1000 nM	≤ 10 nM	–	–
C=CC(=O)N1CCC[C@H](Nc2cnc(C(N)=O)c(Nc3ccc(-c4ncccn4)cc3)n2)C1 [Example C-36, (S)-5-(1-acryloylpiperidin-3-ylamino)-3-(4-(pyrimidin-2-yl)phenylamino) pyrazine-2-carboxamide]	100 to 1000 nM	≤ 10 nM	–	–
C=CC(=O)N1CCC[C@H](Nc2cnc(C(N)=O)c(Nc3ccc(C(C)C)cc3)n2)C1 [Example C-37, (S)-5-(1-acryloylpiperidin-3-ylamino)-3-(4-isopropylphenylamino) pyrazine-2-carboxamide]	100 to 1000 nM	≤ 10 nM	–	–
C=CC(=O)N1CCC[C@H](N(C)c2nnc(C(N)=O)c(Nc3ccc(C(C)C)cc3)n2)C1 [Example C-43, (S)-3-((1-acryloylpiperidin-3-yl)(methyl)amino)-5-(4-isopropylphenylamino)-1,2,4-triazine-6-carboxamide]	10 to 100 nM	≤ 10 nM	–	–
CCC(=O)N1CCC[C@@H](Nc2nnc(C(N)=O)c(Nc3ccc(C(C)(C)C)cc3)n2)C1 [Example C-46, (R)-5-(4-tert-butylphenylamino)-3-(1-propionylpiperidin-3-ylamino)-1,2,4-triazine-6-carboxamide]	100 to 1000 nM	≤ 10 nM	–	–
C=CC(=O)N1CCC[C@@H](Nc2nnc(C(N)=O)c(Nc3ccc(C4CC4)cc3)n2)C1 [Example C-47, (R)-3-(1-acryloylpiperidin-3-ylamino)-5-(4-cyclopropylphenyl-amino)-1,2,4-triazine-6-carboxamide]	10 to 100 nM	≤ 10 nM	–	–

The remaining lines, values ahead:

IC50 (ITK; Table 15, C compounds)	IC50 (BTK-WT; Table 15, C compounds)	IC50 (ITK; Table 13, A compounds)	IC50 (BTK-WT; Table 13, A compounds)	SMILES
10 to 100 nM	≤ 10 nM	–	–	C=CC(=O)N1CCC[C@@H](Nc2nnc(C(N)=O)c(Nc3ccc(C(C)C)cc3)n2)[C@@H]1C (racemic) [Example C-33, 3-((2S,3R)-1-acryloyl-2-methylpiperidin-3-ylamino)-5-(4-isopropylphenylamino)-1,2,4-triazine-6-carboxamide]
10 to 100 nM	≤ 10 nM	–	–	C=CC(=O)N1CCC[C@H](Nc2nnc(C(N)=O)c(Nc3ccc(-c4ncco4)cc3)n2)C1 [Example C-34, (S)-3-(1-acryloylpiperidin-3-ylamino)-5-(4-(oxazol-2-yl)phenylamino)-1,2,4-triazine-6-carboxamide]
≤ 10 nM	≤ 10 nM	–	–	C=CC(=O)N1CCCC[C@@H](Nc2nnc(C(N)=O)c(Nc3ccc(C(C)C)cc3)n2)C1 [Example C-38, (R)-3-(1-acryloylazepan-3-ylamino)-5-(4-isopropylphenylamino)-1,2,4-triazine-6-carboxamide]
10 to 100 nM	≤ 10 nM	–	–	C=CC(=O)N1CCC[C@H](Nc2nnc(C(N)=O)c(Nc3ccc(C(C)(C)C)cc3)n2)C1 [Example C-39, (S)-3-(1-acryloylpiperidin-3-ylamino)-5-(4-tert-butylphenylamino)-1,2,4-triazine-6-carboxamide]
≤ 10 nM	≤ 10 nM	–	–	C=CC(=O)N1CCC(C)(c2ccc(Nc3nc(N[C@@H]4CCCN(C(=O)C=C)C4)nnc3C(N)=O)cc2)CC1 [Example C-45, (R)-5-(4-(1-acryloyl-4-methylpiperidin-4-yl)phenylamino)-3-(1-acryloylpiperidin-3-ylamino)-1,2,4-triazine-6-carboxamide]
